Experimental data as given in patent publication US20140187556A1, “ANTI-AMYLOID COMPOUNDS AND METHODS” (Treventis Corporation, priority 2011, published 2014).

Tests used:
Tau441 = Tau441 (Homo sapiens, UniProt P10636); experiment: Thioflavin S (ThS) tau aggregation assay; assay type: biochemical; settings: 20 μM, FIG. 1
Protocol: Analogous to the method of Example 1, the ability of compounds to inhibit the aggregation of tau was performed by substituting […] with tau and Thioflavin T with Thioflavin S.

alpha-synuclein = alpha-synuclein (Homo sapiens, UniProt P37840); experiment: alpha-synuclein aggregation assay (ThT, analogous to Example 1); assay type: biochemical; settings: 10 μM compound
Protocol: Analogous to the method of Example 1, the ability of compounds to inhibit the aggregation of alpha-synuclein was performed by substituting Aβ with alpha-synuclein.

[1] = Metabolic stability in mouse liver microsomes; assay type: in vitro ADME; settings: 1 μM compound, 0.5 mg/mL microsomal protein, 1 mM NADPH
Protocol: This assay is used to determine the percent remaining and intrinsic clearance of a test compound incubated with pooled mouse liver microsomes in the presence of NADPH. Further details on this method may be found in Jeffrey P, et al., Utility of metabolic stability screening: comparison of in vitro and in vivo clearance. enobiotica. 2001 August-September; 31(8-9):591-8 and Lin J H, et al., Role of pharmacokinetics and metabolism in drug discovery and development. Pharmacol Rev. 1997; 49(4):403-49; each of which is hereby incorporated by reference. Test compound was formulated in 300 μL of DMSO at 10 mM and was diluted to 1 μM with final concentration of organic solvent <0.25% for the experiment. Pooled liver microsomes were prepared from male mice, with 1 mM NADPH. Test compound was incubated at 37 degrees Celsius in buffer containing 0.5 mg/mL microsomal protein; the reaction was initiated by adding cofactors and sampled at 0, 10, 20, 30, and 60 minutes. A positive control (5 μM testosterone) was incubated and initiated in parallel for quality control. Samples were analyzed using an LTQ-Orbitrap XL mass spectrometer; HRMS was used to determine the peak area response ratio (peak area corresponding to test compound or control divided by that of an analytical internal standard) without running a standard curve.
Results were reported for selected compounds in the table of Example 1, as % test compound remaining after 60 minutes. Compounds which have less than about 5% remaining are not considered to be metabolically stable in mouse liver microsomes, while compounds with more than about 5% remaining are considered to be metabolically stable in mouse liver microsomes.

[2] = Blood-brain barrier penetration potential using MDR1-MDCK cell monolayers; assay type: in vitro ADME; settings: dog
Description: This assay is used to determine the blood-brain barrier (BBB) penetration potential of a test compound using MDR1-MDCK cell monolayers. Further details on this method may be found in Taub M E, et al., Functional assessment of multiple Pglycoprotein (P-gp) probe substrates: Influence of cell line and modulator concentration on P-gp activity. Drug Metab Dispos. 2005 November; 33(11): 1679-87 and Wang Q, et al., Evaluation of the MDR-MDCK cell line as a permeability screen for the blood-brain barrier. Int J. Pharm. 2005 Jan. 20; 288(2):349-59; each of which is hereby incorporated by reference. Test compound was formulated in 300 μL of DMSO at 10 mM and diluted to 5 μM in HBSSg with maximum DMSO concentration not greater than 1%. Confluent monolayers of MDR1-MDCK cells, 7 to 11 days old, were used. A receiver well, having apical and basolateral sides at pH 7.4, was used with 1% BSA in modified Hanks buffer (HBSSg). Two monolayers were dosed with test compound in each direction (N=2). Apical side dosing was used for A-B assessment and basolateral side was used for B-A assessment; taken together, this information provides a bidirectional permeability potential. Apical and basolateral sides were sampled at 120 minutes and concentrations of test compound were determined using an LC-MS/MS method with a minimum 4 point calibration curve. Apparent permeability (Papp) in both directions (A-B and B-A) was calculated, as was the efflux ratio (Papp B-A)/(Papp A-B).

5xFAD mouse = experiment: In vivo efficacy trial in the 5xFAD transgenic AD mouse model; settings: wildtype littermate mice
Description: The 5xFAD mouse (B6SJL-Tg(SwFLon,PSEN1*M 146L*L286V)6799Vas/J; JAX #006554) overexpresses human APP(695) with the Swedish (K670N,M671L), Florida (I716V) and London (V717I) familial AD (FAD) mutations, as well as human presenilin 1 (PSI) with two FAD mutations (M 146L and L286V). These five mutations act additively, leading to large and rapid age-related increases in neuronal Aβ-40 and Aβ-42 peptides beginning at 2 months of age. […] Extra-cellular Aβ plaques are first observed in the hippocampus, subiculum, frontal cortex and spinal cord at 2-3 months of age and increase with age. No neurofibrillary tangles (tau) are observed in the brains of 5xFAD mice. […] Active astrocytes are commonly found surrounding β-amyloid plaques and levels of the pre-synaptic marker synaptophysin are decreased, indicating a decrease in synaptic connectivity to the 5xFAD mouse (Oakley et al., 2006). […] Age-related cognitive impairment in visuo-spatial working memory in the Y-maze occurs at 4-5 months of age. […]
The general procedure for an in vivo efficacy trial with 5xFAD mice is as follows. […] After behavioral testing, mice are sacrificed and their blood and brains assessed for Aβ levels.

Tau441, sequence (P10636 1-441 isoform P10636-8): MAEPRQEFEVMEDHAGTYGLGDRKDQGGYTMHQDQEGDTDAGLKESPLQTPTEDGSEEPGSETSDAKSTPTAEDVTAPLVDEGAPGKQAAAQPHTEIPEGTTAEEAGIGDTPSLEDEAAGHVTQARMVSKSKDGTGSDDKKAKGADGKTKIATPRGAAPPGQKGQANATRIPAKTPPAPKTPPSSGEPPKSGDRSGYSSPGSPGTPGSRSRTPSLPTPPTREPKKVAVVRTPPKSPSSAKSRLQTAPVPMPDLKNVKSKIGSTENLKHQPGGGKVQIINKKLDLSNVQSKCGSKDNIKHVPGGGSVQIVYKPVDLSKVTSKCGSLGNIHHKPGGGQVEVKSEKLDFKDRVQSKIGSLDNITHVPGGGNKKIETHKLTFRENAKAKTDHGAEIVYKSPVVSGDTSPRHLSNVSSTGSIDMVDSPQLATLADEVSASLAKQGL

O=[N+]([O-])c1ccc(-c2cccc(C(O)C(F)(F)F)c2)cc1NCc1ccccc1 (stereo not shown) [TRV 1140, 1-(3′-(benzylamino)-4′-nitro-[1,1′-biphenyl]-3-yl)-2,2,2-trifluoroethanol]
relative potency in tau aggregation assay (lower fluorescence is better) (Tau441): Most potent
inhibition of alpha-synuclein aggregation (alpha-synuclein): inhibit alpha-synuclein aggregation at 10 μM
Stability in mouse liver microsomes (% test compound remaining after 60 min) [1]: 34%
Papp A→B at 120 min, 5 µM ([2]; MDCK-MDR1, apical dosing, pH 7.4, read-out: Papp A-B × 10^−6 cm/s): 15.3 ×10⁻⁶ cm/s
Papp B→A at 120 min, 5 µM ([2]; MDCK-MDR1, basolateral dosing, pH 7.4, read-out: Papp B-A × 10^−6 cm/s): 12.4 ×10⁻⁶ cm/s
efflux ratio at 120 min, 5 µM ([2]; MDCK-MDR1, pH 7.4, read-out: Efflux ratio (Papp B-A)/(Papp A-B)): 0.8
behavioural performance, WT with compound versus WT with vehicle (5xFAD mouse): no difference in behavioural performance
